Earlier results on one molecule are cited in patent US8128952B2, “Ligand-mediated controlled drug delivery” (Clemson University Research Foundation, priority 2005, dated 2012).

SMILES strings stand for the structures.

For the data set, the target named is human growth hormone (hGH) (Homo sapiens, UniProt P01241). The conditions noted are these: interaction between hGH and Zn-EDTA.
Chain of human growth hormone (hGH) (P01241 27-217): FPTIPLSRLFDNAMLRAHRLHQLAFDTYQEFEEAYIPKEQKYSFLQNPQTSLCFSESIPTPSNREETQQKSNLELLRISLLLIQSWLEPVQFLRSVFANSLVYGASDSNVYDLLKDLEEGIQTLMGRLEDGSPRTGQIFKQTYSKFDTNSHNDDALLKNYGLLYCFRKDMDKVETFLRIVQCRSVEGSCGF

As to `O=C([O-])CN(CCN(CC(=O)O)CC(=O)O)CC(=O)[O-].[Zn+2]` [Zn-EDTA, Zn-ethylenediamine tetraacetic acid], the dissociation constant Kd was 380 µM.
